Assay results taken from patent publication US11957792B2, “Taste-masked pharmaceutical compositions containing diclofenac” (GLATT AG, priority 2012, dated 2024).
In brackets after ≈: the same amount, converted by molar mass.

Tests used:
[1] = Agglomerate formation at pH 1.1 (such as gastric fluid); type: physicochemical
[2] = Equilibrium solubility, saturation shake-flask method; type: physicochemical; conditions: 37 °C, thermodynamic from solid, mean ± SD (n=3)
Procedure: The solubility of diclofenac free acid, sodium and potassium was comparatively evaluated in media reflecting the oral way of administration, as e.g. with different pH values. The equilibrium solubility was determined using the saturation shake-flask method. Briefly, an excess amount of drug was added into the different media maintained at 37±0.5° C. and shaken for at least 24 hours. After equilibrium was reached, the excess of solid was removed and the diclofenac concentration in the supernatant solutions was determined by HPLC.

O=C(O)Cc1ccccc1Nc1c(Cl)cccc1Cl [Diclofenac acid, 2-[(2,6-Dichlorophenyl)amino]benzeneacetic acid]
formation of agglomerates [1]: not diclofenac acid form agglomerates | solubility ([2]; 0.1N HCl, pH 1.1, simulated gastric fluid, 0.1N HCl pH 1.1): 2.49 ± 0.15 µg/mL (≈ 8.41 µM) | solubility ([2]; simulated gastric fluid, pH 1.6, simulated gastric fluid, Simulated gastric fluid pH 1.6): 1.72 ± 0.01 µg/mL (≈ 5.81 µM)

O=C(O)Cc1ccccc1Nc1c(Cl)cccc1Cl [Diclofenac potassium]
formation of agglomerates [1]: form agglomerates

O=C(O)Cc1ccccc1Nc1c(Cl)cccc1Cl [Diclofenac sodium]
formation of agglomerates [1]: form agglomerates
